# Test results taken from publication PMC3180999 (Journal of medicinal chemistry, 2010).
# Experiments:
# LNCaP/AR cells = experiment: PSA expression readout in LNCaP/AR; format: cell-based; conditions: for activity using PSA levels in vitro: hormone refractory cell line LNCaP/AR, Scheme 17; for activity in the hormone refractory LNCaP/AR assay: Schemes 18 and 19; for activity: hormone-refractory LNCaP/AR, Scheme 21
# LAPC4/AR cells = experiment: LAPC4/AR xenograft in castrate SCID mice; format: in vivo; conditions: 10 mg/kg, pilot experiment, Figure 1
# AR [1] = experiment: luciferase reporter assay; format: cell-based; conditions: for relative luciferase activity: vs bicalutamide and 27 as standards, Scheme 8; for luciferase assay activity: vs 21 and 22 as standards, Scheme 13; for luciferase reporter assay activity: Scheme 14
# PSA secretion = experiment: relative PSA level / PSA secretion assay, cell line not named; format: cell-based; conditions: for relative PSA expression levels: vs bicalutamide and 27 as standards, Scheme 9
# AR [2] = experiment: activity test, assay not named; format: cell-based; conditions: 27 as the standard, Scheme 10
# [3] = pharmacokinetics: serum concentration, steady state concentration
# [4] = vs 27 and 38 as standards, Scheme 12
# [5] = vs 21 and 22 as standards, Scheme 13
smiles,measurement,setting,value
"CC(O)(CS(=O)(=O)c1ccc(F)cc1)C(=O)Nc1ccc(C#N)c(C(F)(F)F)c1 (stereo not drawn) [bicalutamide, reference compound]",activity using PSA levels in vitro,LNCaP/AR cells,inactive
"Cc1ccc(N2C(=S)N(c3ccc(C#N)c(C(F)(F)F)c3)C(=O)C2(C)C)cc1 [compound 27, 4-[3-(4-Methylphenyl)-4,4-dimethyl-5-oxo-2-thioxoimidazolidin-1-yl]-2-trifluoromethylbenzonitrile]",fold change in tumor volume of xenografts,LAPC4/AR cells,more effective than bicalutamide
"CCC1(C)C(=O)N(c2ccc(C)cc2)C(=S)N1c1ccc(C#N)c(C(F)(F)F)c1 (stereo not drawn) [compound 36, 4-[3-(4-Methylphenyl)-5-ethyl-5-methyl-4-oxo-2-thioxoimidazolidin-1-yl]-2-trifluoromethylbenzonitrile]",relative luciferase activity,AR [1],reduced activity relative to 27
"CCC1(CC)C(=O)N(c2ccc(C)cc2)C(=S)N1c1ccc(C#N)c(C(F)(F)F)c1 [compound 37, 4-[3-(4-Methylphenyl)-5,5-diethyl-4-oxo-2-thioxoimidazolidin-1-yl]-2-trifluoromethylbenzonitrile]",relative luciferase activity,AR [1],reduced activity relative to 27
"Cc1ccc(N2C(=S)N(c3ccc(C#N)c(C(F)(F)F)c3)C(=O)C23CCCC3)cc1 [compound 39, 4-(4-Oxo-2-thioxo-1-(4-methylphenyl)-1,3-diazaspiro[4.4]non-3-yl)-2-trifluoromethylbenzonitrile]",relative PSA expression levels,PSA secretion,comparable to the dimethyl analogue 27
"Cc1ccc(N2C(=S)N(c3ccc(C#N)c(C(F)(F)F)c3)C(=O)C23CCN(C)CC3)cc1 [compound 43, 4-(8-Methyl-4-oxo-2-thioxo-1-(4-methylphenyl)-1,3,8-triazaspiro[4.5]dec-3-yl)-2-trifluoromethylbenzonitrile]",relative PSA expression levels,PSA secretion,distinctly less active
Cc1ccccc1N1C(=S)N(c2ccc(C#N)c(C(F)(F)F)c2)C(=O)C12CCC2 [compound 44],activity,AR [2],active
N#Cc1ccc(N2C(=O)C3(CCC3)N(c3ccccc3C(=O)O)C2=S)cc1C(F)(F)F [compound 45],activity,AR [2],inactive
Cc1ccc(N2C(=S)N(c3ccc(C#N)c(C(F)(F)F)c3)C(=O)C2(CCl)CCl)cc1 [compound 46],activity,AR [2],decreased activity
Cc1ccc(N2C(=S)N(c3ccc(C#N)c(C(F)(F)F)c3)C(=O)C2(C)CF)cc1 (stereo not drawn) [compound 47],activity,AR [2],good activity
N#Cc1ccc(N2C(=O)C3(CCC3)N(c3ccc(-c4ccccc4)cc3)C2=S)cc1C(F)(F)F [compound 48],relative PSA readout,"PSA secretion; vs standards, Scheme 11",very similar in activity to 38
"N#Cc1ccc(N2C(=O)C3(CCC3)N(c3ccc(O)cc3)C2=S)cc1C(F)(F)F [compound 49, 4-(8-Oxo-6-thioxo-5-(4-hydroxyphenyl)-5,7-diazaspiro[3.4]oct-7-yl)-2-trifluoromethylbenzonitrile]",relative PSA readout,"PSA secretion; vs standards, Scheme 11",very similar in activity to 38
"CC1(C)C(=O)N(c2ccc(C#N)c(C(F)(F)F)c2)C(=S)N1c1ccc(C(F)(F)F)cc1 [compound 52, 4-(4,4-Dimethyl-5-oxo-2-thioxo-3-(4-trifluoromethylphenyl)imidazolidin-1-yl)-2-trifluoromethylbenzonitrile]",relative PSA readout,"PSA secretion; vs standards, Scheme 11",slightly more active than the methyl analogue 27
Cc1ccc(N2C(=S)N(c3ccc(C#N)c(C(F)(F)F)c3)C(=N)C23CCC3)cc1 [compound 53],relative PSA readout,PSA secretion; [4],nearly as active as the parent compounds 27 and 38
Cc1ccc(N2C(=S)N(c3ccc(C#N)c(C(F)(F)F)c3)C(=N)C2(C)C)cc1 [compound 54],relative PSA readout,PSA secretion; [4],nearly as active as the parent compounds 27 and 38
CC1(C)C(=S)N(c2ccc(C#N)c(C(F)(F)F)c2)C(=S)N1c1ccc(O)cc1 [compound 55],relative PSA readout,PSA secretion; [4],not as active as the parent thiohydantoin 28
CC1(C)C(=O)N(c2ccc(C#N)c(C(F)(F)F)c2)C(=O)N1c1ccc(O)cc1 [compound 56],relative PSA readout,PSA secretion; [4],not as active as the parent thiohydantoin 28
C/N=C1\N(c2ccc(C#N)c(C(F)(F)F)c2)C(=S)N(c2ccc(C)cc2)C12CCC2 [compound 57],relative PSA levels,PSA secretion; [5],somewhat active
same,luciferase assay activity,AR [1],somewhat active
CC/N=C1\N(c2ccc(C#N)c(C(F)(F)F)c2)C(=S)N(c2ccc(C)cc2)C1(C)C [compound 60],relative PSA levels,PSA secretion; [5],somewhat active
same,luciferase assay activity,AR [1],somewhat active
Cc1ccc(N2/C(=N/c3ccc(C#N)c(C(F)(F)F)c3)S/C(=N\C(=S)Nc3ccc(C#N)c(C(F)(F)F)c3)C2(C)C)cc1 [compound 63],relative PSA levels,PSA secretion; Scheme 14,excellent activity comparable to their parent thiohydantoin analogues 27 and 38
same,luciferase reporter assay activity,AR [1],excellent activity comparable to their parent thiohydantoin analogues 27 and 38
Cc1ccc(N2/C(=N/c3ccc(C#N)c(C(F)(F)F)c3)S/C(=N\C(=S)Nc3ccc(C#N)c(C(F)(F)F)c3)C23CCC3)cc1 [compound 64],relative PSA levels,PSA secretion; Scheme 14,excellent activity comparable to their parent thiohydantoin analogues 27 and 38
same,luciferase reporter assay activity,AR [1],excellent activity comparable to their parent thiohydantoin analogues 27 and 38
"N#Cc1ccc(N2C(=O)C3(CCC3)N(c3ccc(C=O)cc3)C2=S)cc1C(F)(F)F [compound 75, 4-[5-(4-Formylphenyl)-8-oxo-6-thioxo-5,7-diazaspiro[3.4]oct-7-yl]-2-trifluoromethylbenzonitrile]",IC50,PSA secretion,0.2 to 0.3 µM
"CC(O)c1ccc(N2C(=S)N(c3ccc(C#N)c(C(F)(F)F)c3)C(=O)C23CCC3)cc1 (stereo not drawn) [compound 76, 4-{5-[4-(1-Hydroxyethyl)phenyl]-8-oxo-6-thioxo-5,7-diazaspiro[3.4]oct-7-yl}-2-trifluoromethylbenzonitrile]",IC50,PSA secretion,0.2 to 0.3 µM
"N#Cc1ccc(N2C(=O)C3(CCC3)N(c3ccc(/C=C/C(N)=O)cc3)C2=S)cc1C(F)(F)F [compound 77, (E)-3-{4-[7-(4-cyano-3-trifluoromethylphenyl)-8-oxo-6-thioxo-5,7-diazaspiro[3.4]oct-5-yl]-phenyl}-2-propanamide]",IC50,PSA secretion,0.1 to 0.15 µM
"N#Cc1ccc(N2C(=O)C3(CCC3)N(c3ccc(/C=C/CO)cc3)C2=S)cc1C(F)(F)F [compound 78, (E)-4-{5-[4-(3-Hydroxy-1-propenyl)phenyl]-8-oxo-6-thioxo-5,7-diazaspiro[3.4]oct-7-yl}-2-trifluoromethylbenzonitrile]",IC50,PSA secretion,0.1 to 0.15 µM
"CNC(=O)CCCc1ccc(N2C(=S)N(c3ccc(C#N)c(C(F)(F)F)c3)C(=O)C23CCC3)cc1 [compound 80, N-Methyl-4-{4-[7-(4-cyano-3-trifluoromethylphenyl)-8-oxo-6-thioxo-5,7-diaza-spiro[3.4]-oct-5-yl]phenyl}butanamide]",activity using PSA levels in vitro,LNCaP/AR cells,most active compound
same,PK (serum concentration curve),[3]; Figure 4,poor
same,metabolism seen,"[3]; mouse, in vivo",hydrolysis of the N-methyl amide to the acid was seen
"CS(=O)(=O)c1ccc(N2C(=S)N(c3ccc(C#N)c(C(F)(F)F)c3)C(=O)C23CCC3)cc1 [compound 86, 4-[5-(4-Methanesulfonylphenyl)-8-oxo-6-thioxo-5,7-diazaspiro[3.4]oct-7-yl]-2-trifluoromethylbenzonitrile]",activity in the hormone refractory LNCaP/AR assay,LNCaP/AR cells,good activity
"COC(=O)c1ccc(N2C(=S)N(c3ccc(C#N)c(C(F)(F)F)c3)C(=O)C2(C)C)cc1 [compound 87, 4-[3-(4-Cyano-3-trifluoromethylphenyl)-5,5-dimethyl-4-oxo-2-thioxo-imidazolidin-1-yl]benzoic acid methyl ester]",activity in the hormone refractory LNCaP/AR assay,LNCaP/AR cells,good activity
"CNC(=O)c1ccc(N2C(=S)N(c3ccc(C#N)c(C(F)(F)F)c3)C(=O)C2(C)C)cc1 [compound 88, 4-[3-(4-Cyano-3-trifluoromethylphenyl)-5,5-dimethyl-4-oxo-2-thioxo-imidazolidin-1-yl]-N-methylbenzamide]",activity in the hormone refractory LNCaP/AR assay,LNCaP/AR cells,good activity
"CNC(=O)c1ccc(N2C(=S)N(c3ccc(C#N)c(C(F)(F)F)c3)C(=O)C23CCC3)cc1 [compound 89, N-methyl-4-[7-(4-cyano-3-trifluoromethylphenyl)-8-oxo-6-thioxo-5,7-diazaspiro-[3.4]oct-5-yl]benzamide]",activity in the hormone refractory LNCaP/AR assay,LNCaP/AR cells,good activity
N#Cc1ccc(N2C(=O)C3(CCC3)N(c3ccc(O)cc3F)C2=S)cc1C(F)(F)F [compound 90],activity in the hormone refractory LNCaP/AR assay,LNCaP/AR cells,good activity
"CNC(=O)c1ccc(N2C(=S)N(c3ccc(C#N)c(C(F)(F)F)c3)C(=O)C2(C)C)cc1F [compound 92, N-Methyl-4-[3-(4-cyano-3-trifluoromethylphenyl)-5,5-dimethyl-4-oxo-2-thioxoimidazolidin-1-yl]-2-fluorobenzamide]",dose-response study on castration resistant LNCaP AR cells,LNCaP/AR cells; Figure 9,a little more active than 91
same,activity,LNCaP/AR cells,very active
"CNC(=O)c1ccc(N2C(=S)N(c3ccc(C#N)c(C(F)(F)F)c3)C(=O)C23CCCC3)cc1F [compound 93, N-Methyl-4-[3-(4-cyano-3-trifluoromethylphenyl)-4-oxo-2-thioxo-1,3-diazaspiro[4.4]nonan-1-yl]-2-fluorobenzamide]",activity,LNCaP/AR cells,very active
"CN(C)C(=O)CCCc1ccc(N2C(=S)N(c3ccc(C#N)c(C(F)(F)F)c3)C(=O)C23CCC3)cc1 [compound 94, N,N-dimethyl-4-[4-(7-(4-cyano-3-trifluoromethylphenyl)-8-oxo-6-thioxo-5,7-diazaspiro-[3.4]octan-5-yl)phenyl]butanamide]",activity,LNCaP/AR cells,quite good activity compared to earlier compounds
"N#CCCCc1ccc(N2C(=S)N(c3ccc(C#N)c(C(F)(F)F)c3)C(=O)C23CCC3)cc1 [compound 95, 4-[5-(4-(3-Cyanopropyl)phenyl)-8-oxo-6-thioxo-5,7-diazaspiro[3.4]octan-7-yl]-2-(trifluoromethyl) benzonitrile]",activity,LNCaP/AR cells,quite good activity compared to earlier compounds
